Tested on: HCV replicon
Assay: Replicon based assay of HCV replication inhibition (NPT ELISA)
Format: cell-based, Hepatitis C virus
Conditions: Hepatitis C virus, Huh-7, 72 h, Table III; Huh-7 HCV replicon-containing cells, three days; read-out: Activity
Procedure, shortened: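 Huh-7 cells carrying a bicistronic HCV replicon (neo, EMCV-IRES-driven NS3–NS5B) treated overnight after seeding with usually 6 concentrations, 10 to 0.03 micromolar, for three days at 37° C without G418. Replication read as NPT level by captured ELISA; matched-DMSO wells and interferon alpha as controls.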

Row | SMILES | EC50 [nM]
1 | CCCCCCCCOc1ccc(Nc2nc(-c3ccc(N(C)C)nc3)cs2)cc1C(F)(F)F [compound 541, 5-(2-(3-(trifluoromethyl)-4-(octyloxy)phenylamino)thiazol-4-yl)-N,N-dimethylpyridin-2-amine] | < 1000
2 | CCCCCOc1ccc(Nc2nc(/C=C/c3cccc(Cl)c3)cs2)cc1C(F)(F)F [compound 542, 4-(3-chlorostyryl)-N-(3-(trifluoromethyl)-4-(pentyloxy)phenyl)thiazol-2-amine] | < 1000
3 | CCCCCOc1ccc(Nc2nc(-c3cc4cccnc4nc3O)cs2)cc1C(F)(F)F [compound 543, 3-(2-(3-(trifluoromethyl)-4-(pentyloxy)phenylamino)thiazol-4-yl)-l,8-naphthyridin-2-ol] | 1000 to 10000
4 | CCCCCCCCc1ccc(Nc2nc(-c3ccc(F)cc3)cs2)cc1 [compound 544, 4-(4-fluorophenyl)-N-(4-octylphenyl)thiazol-2-amine] | < 1000
5 | CCCCCCCCc1ccc(Nc2nc(-c3ccc(O)c(C(N)=O)c3)cs2)cc1 [compound 545, 5-(2-(4-octylphenylamino)thiazol-4-yl)-2-hydroxybenzamide] | < 1000
6 | CCCCCCCCc1ccc(Nc2nc(-c3ccc(Cl)s3)cs2)cc1 [compound 546, 4-(5-chlorothiophen-2-yl)-N-(4-octylphenyl)thiazol-2-amine] | < 1000
7 | CCCCCCCCc1ccc(Nc2nc(-c3ccc(O)c(O)c3)cs2)cc1 [compound 547, 4-(2-(4-octylphenylamino)thiazol-4-yl)benzene-1,2-diol] | < 1000
8 | CCCCCCCCc1ccc(Nc2nc(-c3ccc4c(c3)NC(=O)CO4)cs2)cc1 [compound 548, 6-(2-(4-octylphenylamino)thiazol-4-yl)-2H-benzo[b][1,4]oxazin-3(4H)-one] | < 1000
9 | CCCCCCCCc1ccc(Nc2nc(-c3ccc4[nH]c(=O)oc4c3)cs2)cc1 [compound 549, 6-(2-(4-octylphenylamrno)thiazol-4-yl)benzo[d]oxazol-2(3H)-one] | < 1000
10 | CCCCCCCCc1ccc(Nc2nc(-c3ccc(OCC(=O)O)cc3)c(C)s2)cc1 [compound 550, 2-(4-(2-(4-octylphenylamino)-5-methylthiazol-4-yl)phenoxy)acetic acid] | < 1000
11 | CCCCCCCCc1ccc(Nc2nc(-c3ccccn3)cs2)cc1 [compound 551, N-(4-octylphenyl)-4-(pyridin-2-yl)thiazol-2-amine] | < 1000
12 | CCCCCCCCc1ccc(Nc2nc(-c3ccc(-c4ccccn4)s3)cs2)cc1 [compound 552, N-(4-octylphenyl)-4-(5-(pyridin-2-yl)thiophen-2-yl)thiazol-2-amine] | < 1000
13 | CCCCCCCCc1ccc(Nc2nc(-c3cc4ccccc4o3)cs2)cc1 [compound 553, 4-(benzofuran-2-yl)-N-(4-octylphenyl)thiazol-2-amine] | 1000 to 10000
14 | CCCCCCCCc1ccc(Nc2nc(-c3sc(-c4cnccn4)nc3C)cs2)cc1 [compound 554, 4-(4-methyl-2-(pyrazin-2-yl)thiazol-5-yl)-N-(4-octylphenyl)thiazol-2-amine] | < 1000
15 | CCCCCCCCc1ccc(Nc2nc(-c3ccc(Cl)cc3)cs2)cc1 [compound 555, 4-(4-chlorophenyl)-N-(4-octylphenyl)thiazol-2-amine] | < 1000
16 | CCCCCCCc1ccc(Nc2nc(-c3ccc(O)c(C(N)=O)c3)cs2)cc1 [compound 557, 5-(2-(4-heptylphenylamino)thiazol-4-yl)-2-hydroxybenzamide] | < 1000
17 | CCCCCCCc1ccc(Nc2nc(-c3ccc(Cl)s3)cs2)cc1 [compound 558, 4-(5-chlorothiophen-2-yl)-N-(4-heptylphenyl)thiazol-2-amine] | < 1000
18 | CCCCCCCc1ccc(Nc2nc(-c3ccc(O)c(O)c3)cs2)cc1 [compound 559, 4-(2-(4-heptylphenylamino)thiazol-4-yl)benzene-1,2-diol] | < 1000
19 | CCCCCCCc1ccc(Nc2nc(-c3ccc4c(c3)NC(=O)CO4)cs2)cc1 [compound 560] | < 1000
20 | CCCCCCCc1ccc(Nc2nc(-c3ccc4[nH]c(=O)oc4c3)cs2)cc1 [compound 561] | < 1000
21 | CCCCCCCc1ccc(Nc2nc(-c3ccc(OCC(=O)O)cc3)c(C)s2)cc1 [compound 562, 2-(4-(2-(4-heptylphenylamino)-5-methylthiazol-4-yl)phenoxy)acetic acid] | < 1000

Row | SMILES | EC50 [nM]
22 | CCCCCCCc1ccc(Nc2nc(-c3ccccn3)cs2)cc1 [compound 563, N-(4-heptylphenyl)-4-(pyridin-2-yl)thiazol-2-amine] | < 1000
23 | CCCCCCCc1ccc(Nc2nc(-c3ccc(-c4ccccn4)s3)cs2)cc1 [compound 564, N-(4-heptylphenyl)-4-(5-(pyridin-2-yl)thiophen-2-yl)thiazol-2-amine] | < 1000
24 | CCCCCCCc1ccc(Nc2nc(-c3cc4ccccc4o3)cs2)cc1 [compound 565, 4-(benzofuran-2-yl)-N-(4-heptylphenyl)thiazol-2-amine] | > 10000
25 | CCCCCCCc1ccc(Nc2nc(-c3sc(-c4cnccn4)nc3C)cs2)cc1 [compound 566, N-(4-heptylphenyl)-4-(4-methyl-2-(pyrazin-2-yl)thiazol-5-yl)thiazol-2-amine] | < 1000
26 | CCCCCCCc1ccc(Nc2nc(-c3ccc(Cl)cc3)cs2)cc1 [compound 567, 4-(4-chlorophenyl)-N-(4-heptylphenyl)thiazol-2-amine] | < 1000
27 | CCCCCCCCN(C)c1ccc(Nc2nc(-c3ccc(F)cc3)cs2)cc1C(F)(F)F [compound 568, 2-(trifluoromethyl)-N^4-(4-(4-fluorophenyl)thiazol-2-yl)-N^1-methyl-N^1-octylbenzene-1,4-diamine] | < 1000
28 | CCCCCCCCN(C)c1ccc(Nc2nc(-c3ccc(O)c(C(N)=O)c3)cs2)cc1C(F)(F)F [compound 569, 5-(2-(4-(N-methyl-N-octylamino)-3-(trifluoromethyl)phenylamino)thiazol-4-yl)-2-hydroxybenzamide] | < 1000
29 | CCCCCCCCN(C)c1ccc(Nc2nc(-c3ccc(Cl)s3)cs2)cc1C(F)(F)F [compound 570, N^4-(4-(5-chlorothiophen-2-yl)thiazol-2-yl)-2-(trifluoromethyl)-N^1-methyl-N^1-octylbenzene-1,4-diamine] | < 1000
30 | CCCCCCCCN(C)c1ccc(Nc2nc(-c3ccc(O)c(O)c3)cs2)cc1C(F)(F)F [compound 571, 4-(2-(4-(N-methyl-N-octylamino)-3-(trifluoromethyl)phenylamino)thiazol-4-yl)benzene-1,2-diol] | < 1000
31 | CCCCCCCCN(C)c1ccc(Nc2nc(-c3ccc4c(c3)NC(=O)CO4)cs2)cc1C(F)(F)F [compound 572, 6-(2-(4-(N-methyl-N-octylamino)-3-(trifluoromethyl)phenylamino)thiazol-4-yl)-2H-benzo[b][1,4]oxazin-3(4H)-one] | 1000 to 10000
32 | CCCCCCCCN(C)c1ccc(Nc2nc(-c3ccc4[nH]c(=O)oc4c3)cs2)cc1C(F)(F)F [compound 573, 6-(2-(4-(N-methyl-N-octylamino)-3-(tnfluoromethyl)phenylamino)azol-4-yl)benzo[d]oxazol-2(3H)-one] | < 1000
33 | CCCCCCCCN(C)c1ccc(Nc2nc(-c3ccc(OCC(=O)O)cc3)c(C)s2)cc1C(F)(F)F [compound 574, 2-(4-(2-(4-(N-methyl-N-octylamino)-3-(trifluoromethyl)phenylamino)-5-methylthiazol-4-yl)phenoxy)acetic acid] | < 1000
34 | CCCCCCCCN(C)c1ccc(Nc2nc(-c3ccc(-c4ccccn4)s3)cs2)cc1C(F)(F)F [compound 576, 2-(trifluoromethyl)-N^1-methyl-N^1-octyl-N^4-(4-(5-(pyridin-2-yl)thiophen-2-yl)thiazol-2-yl)benzene-1,4-diamine] | < 1000
35 | CCCCCCCCN(C)c1ccc(Nc2nc(-c3cc4ccccc4o3)cs2)cc1C(F)(F)F [compound 577, N^4-(4-(benzofuran-2-yl)thiazol-2-yl)-2-(trifluoromethyl)-N^1-methyl-N^1-octylbenzene-1,4-diamine] | 1000 to 10000
36 | CCCCCCCCN(C)c1ccc(Nc2nc(-c3sc(-c4cnccn4)nc3C)cs2)cc1C(F)(F)F [compound 578, 2-(trifluoromethyl)-N^1-methyl-N^4-(4-(4-methyl-2-(pyrazin-2-yl)thiazol-5-yl)thiazol-2-yl)-N^1-octylbenzene-1,4-diamine] | 1000 to 10000
37 | CCCCCCCCN(C)c1ccc(Nc2nc(-c3ccc(Cl)cc3)cs2)cc1C(F)(F)F [compound 579, N^4-(4-(4-chlorophenyl)thiazol-2-yl)-2-(trifluoromethyl)-N^1-methyl-N^1-octylbenzene-1,4-diamine] | < 1000
38 | CCCCCCCCOc1ccc(Nc2nc(-c3ccc(F)cc3)cs2)cc1C(F)(F)F [compound 580, N-(3-(trifluoromethyl)-4-(octyloxy)phenyl)-4-(4-fluorophenyl)thiazol-2-amine] | < 1000
39 | CCCCCCCCOc1ccc(Nc2nc(-c3ccc(O)c(C(N)=O)c3)cs2)cc1C(F)(F)F [compound 581, 5-(2-(3-(trifluoromethyl)-4-(octyloxy)phenylamino)thiazol-4-yl)-2-hydroxybenzamide] | < 1000
40 | CCCCCCCCOc1ccc(Nc2nc(-c3ccc(Cl)s3)cs2)cc1C(F)(F)F [compound 582, 4-(5-chlorothiophen-2-yl)-N-(3-(trifluoromethyl)-4-(octyloxy)phenyl)thiazol-2-amine] | < 1000
41 | CCCCCCCCOc1ccc(Nc2nc(-c3ccc(O)c(O)c3)cs2)cc1C(F)(F)F [compound 583, 4-(2-(3-(trifluoromethyl)-4-(octyloxy)phenylamino)thiazol-4-yl)benzene-1,2-diol] | < 1000
42 | CCCCCCCCOc1ccc(Nc2nc(-c3ccc4c(c3)NC(=O)CO4)cs2)cc1C(F)(F)F [compound 584, 6-(2-(3-(trifluoromethyl)-4-(octyloxy)phenylamino)thiazol-4-yl)-2H-benzo[b][1,4]oxazin-3(4H)-one] | < 1000

From patent publication US8088806B2 (Achillion Pharmaceuticals, Inc., priority 2005, dated 2012)
